Legend:
[1] = target: T1, Cholecystokinin receptor type A (Homo sapiens, UniProt P32238)
T1 sequence (P32238 whole entry): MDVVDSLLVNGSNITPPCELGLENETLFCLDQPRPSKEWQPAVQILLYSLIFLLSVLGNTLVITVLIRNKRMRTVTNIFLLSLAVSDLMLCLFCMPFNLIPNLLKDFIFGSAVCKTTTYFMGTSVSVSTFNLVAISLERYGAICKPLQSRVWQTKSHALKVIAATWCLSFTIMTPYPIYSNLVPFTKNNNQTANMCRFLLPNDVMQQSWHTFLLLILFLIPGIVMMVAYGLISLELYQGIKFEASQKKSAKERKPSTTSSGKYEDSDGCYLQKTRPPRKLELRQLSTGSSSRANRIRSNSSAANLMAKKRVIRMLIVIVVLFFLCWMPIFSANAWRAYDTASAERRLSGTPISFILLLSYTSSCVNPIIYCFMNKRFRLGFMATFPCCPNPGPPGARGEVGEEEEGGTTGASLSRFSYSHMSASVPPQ

Cannabinoid receptor 1 [2] = target: T2, Cannabinoid receptor 1 (Homo sapiens, UniProt P21554); type: functional, cell-based
Cannabinoid receptor 1 [3] = target: T2, Cannabinoid receptor 1; type: functional, cell-based; remark: listed apart in the source
Cannabinoid receptor 1 [4] = target: T2, Cannabinoid receptor 1
[5] = target: Growth hormone secretagogue receptor type 1 (Homo sapiens, UniProt Q92847)
[6] = target: Glutamate receptor ionotropic, NMDA 1 (Rattus norvegicus, UniProt P35439)
Histamine H2 receptor = Histamine H2 receptor (Homo sapiens, UniProt P25021); type: functional, cell-based
[7] = target: T3, 5-hydroxytryptamine receptor 3A (Homo sapiens, UniProt P46098); type: functional
T3 sequence (P46098 whole entry): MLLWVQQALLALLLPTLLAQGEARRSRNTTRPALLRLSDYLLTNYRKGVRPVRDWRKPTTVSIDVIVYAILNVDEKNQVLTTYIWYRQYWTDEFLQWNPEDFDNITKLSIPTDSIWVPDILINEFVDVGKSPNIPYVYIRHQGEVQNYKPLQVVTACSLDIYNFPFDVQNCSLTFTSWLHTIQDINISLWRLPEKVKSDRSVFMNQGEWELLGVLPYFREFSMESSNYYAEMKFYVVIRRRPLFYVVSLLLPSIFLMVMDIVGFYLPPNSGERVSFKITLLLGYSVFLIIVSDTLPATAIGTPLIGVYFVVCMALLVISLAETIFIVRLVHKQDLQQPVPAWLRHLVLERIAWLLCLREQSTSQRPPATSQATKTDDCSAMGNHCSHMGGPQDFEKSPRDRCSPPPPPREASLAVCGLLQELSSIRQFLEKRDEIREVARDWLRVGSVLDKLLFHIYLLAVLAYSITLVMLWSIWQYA

Melanocortin receptor 4 = Melanocortin receptor 4 (Homo sapiens, UniProt P32245)
[8] = target: 3',5'-cyclic-AMP phosphodiesterase 4D (Homo sapiens, UniProt Q08499); type: functional
Progesterone receptor [9] = target: T4, Progesterone receptor (Homo sapiens, UniProt P06401); type: functional
T4 sequence (P06401 whole entry): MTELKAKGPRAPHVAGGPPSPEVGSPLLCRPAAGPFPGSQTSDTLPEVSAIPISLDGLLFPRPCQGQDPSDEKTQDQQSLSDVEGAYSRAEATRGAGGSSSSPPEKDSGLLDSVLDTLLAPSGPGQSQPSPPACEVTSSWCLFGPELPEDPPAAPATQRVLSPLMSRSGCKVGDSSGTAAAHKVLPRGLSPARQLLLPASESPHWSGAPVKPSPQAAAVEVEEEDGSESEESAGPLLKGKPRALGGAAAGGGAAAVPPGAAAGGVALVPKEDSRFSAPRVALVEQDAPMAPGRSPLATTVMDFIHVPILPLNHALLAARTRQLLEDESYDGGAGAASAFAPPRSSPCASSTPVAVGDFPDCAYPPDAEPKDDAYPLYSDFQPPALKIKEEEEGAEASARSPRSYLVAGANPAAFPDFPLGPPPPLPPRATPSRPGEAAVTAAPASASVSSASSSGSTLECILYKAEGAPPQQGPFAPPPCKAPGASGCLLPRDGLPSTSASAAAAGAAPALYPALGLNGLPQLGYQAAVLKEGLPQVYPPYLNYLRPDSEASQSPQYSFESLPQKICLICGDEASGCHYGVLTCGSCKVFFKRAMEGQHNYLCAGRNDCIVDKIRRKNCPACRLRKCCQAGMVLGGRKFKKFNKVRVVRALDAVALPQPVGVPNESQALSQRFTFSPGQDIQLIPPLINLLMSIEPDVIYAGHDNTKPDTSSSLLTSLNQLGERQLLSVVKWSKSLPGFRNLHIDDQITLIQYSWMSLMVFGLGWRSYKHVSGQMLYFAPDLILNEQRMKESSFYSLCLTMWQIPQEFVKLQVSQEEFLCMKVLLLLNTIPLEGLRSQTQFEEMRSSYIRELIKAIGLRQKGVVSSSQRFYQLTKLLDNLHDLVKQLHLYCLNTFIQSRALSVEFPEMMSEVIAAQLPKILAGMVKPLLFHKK

Progesterone receptor [10] = target: T4, Progesterone receptor; type: functional; remark: listed apart in the source
Histamine H3 receptor = Histamine H3 receptor (Homo sapiens, UniProt Q9Y5N1)
[11] = target: T5, Muscarinic acetylcholine receptor M1 (Homo sapiens, UniProt P11229); type: functional, cell-based
T5 sequence (P11229 whole entry): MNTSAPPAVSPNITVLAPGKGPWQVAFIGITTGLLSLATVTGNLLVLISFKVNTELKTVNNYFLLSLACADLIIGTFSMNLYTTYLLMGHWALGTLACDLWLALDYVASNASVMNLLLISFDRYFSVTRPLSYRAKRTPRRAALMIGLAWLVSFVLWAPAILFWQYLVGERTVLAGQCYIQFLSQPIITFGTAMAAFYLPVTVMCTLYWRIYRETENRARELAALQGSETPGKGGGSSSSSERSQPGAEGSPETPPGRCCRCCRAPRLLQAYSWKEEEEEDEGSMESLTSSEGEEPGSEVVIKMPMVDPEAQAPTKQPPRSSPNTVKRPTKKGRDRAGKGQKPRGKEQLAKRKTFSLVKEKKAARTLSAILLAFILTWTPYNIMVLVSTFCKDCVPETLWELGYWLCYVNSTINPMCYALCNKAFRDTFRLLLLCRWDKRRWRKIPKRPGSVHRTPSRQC
Note: assay procedure not described here.

Sequence of Melanocortin receptor 4 (P32245 whole entry): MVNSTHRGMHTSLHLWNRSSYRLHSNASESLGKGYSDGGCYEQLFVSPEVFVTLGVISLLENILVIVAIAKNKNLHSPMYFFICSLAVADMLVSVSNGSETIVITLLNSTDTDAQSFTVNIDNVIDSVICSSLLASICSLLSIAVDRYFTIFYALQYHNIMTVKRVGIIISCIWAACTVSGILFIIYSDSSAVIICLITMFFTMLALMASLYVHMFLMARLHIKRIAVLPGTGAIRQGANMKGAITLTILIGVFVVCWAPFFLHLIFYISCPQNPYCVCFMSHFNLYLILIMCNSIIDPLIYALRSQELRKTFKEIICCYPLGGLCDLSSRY
Sequence of Growth hormone secretagogue receptor type 1 (Q92847 whole entry): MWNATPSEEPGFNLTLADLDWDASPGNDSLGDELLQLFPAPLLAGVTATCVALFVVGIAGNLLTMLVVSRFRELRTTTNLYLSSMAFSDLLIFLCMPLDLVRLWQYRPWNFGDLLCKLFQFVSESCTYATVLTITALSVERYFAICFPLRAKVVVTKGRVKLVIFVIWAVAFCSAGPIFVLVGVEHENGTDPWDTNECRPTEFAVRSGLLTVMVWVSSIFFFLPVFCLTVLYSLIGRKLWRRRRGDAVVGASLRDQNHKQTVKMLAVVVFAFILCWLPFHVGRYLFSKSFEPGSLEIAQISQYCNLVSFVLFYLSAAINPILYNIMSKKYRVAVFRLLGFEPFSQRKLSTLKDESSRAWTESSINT
Sequence of Histamine H3 receptor (Q9Y5N1 whole entry): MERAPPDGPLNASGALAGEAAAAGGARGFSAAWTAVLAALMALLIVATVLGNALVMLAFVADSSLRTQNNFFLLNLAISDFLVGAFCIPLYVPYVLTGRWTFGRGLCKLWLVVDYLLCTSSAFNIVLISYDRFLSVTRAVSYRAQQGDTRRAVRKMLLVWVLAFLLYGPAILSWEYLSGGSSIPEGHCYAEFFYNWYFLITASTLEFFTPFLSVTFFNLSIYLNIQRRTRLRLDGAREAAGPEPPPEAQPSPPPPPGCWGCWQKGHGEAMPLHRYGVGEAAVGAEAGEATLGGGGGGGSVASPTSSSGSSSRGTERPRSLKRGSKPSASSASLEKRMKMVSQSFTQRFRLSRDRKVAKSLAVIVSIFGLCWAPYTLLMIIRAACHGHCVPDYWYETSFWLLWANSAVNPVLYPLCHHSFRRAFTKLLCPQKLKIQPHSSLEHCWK
T2 sequence (P21554 whole entry): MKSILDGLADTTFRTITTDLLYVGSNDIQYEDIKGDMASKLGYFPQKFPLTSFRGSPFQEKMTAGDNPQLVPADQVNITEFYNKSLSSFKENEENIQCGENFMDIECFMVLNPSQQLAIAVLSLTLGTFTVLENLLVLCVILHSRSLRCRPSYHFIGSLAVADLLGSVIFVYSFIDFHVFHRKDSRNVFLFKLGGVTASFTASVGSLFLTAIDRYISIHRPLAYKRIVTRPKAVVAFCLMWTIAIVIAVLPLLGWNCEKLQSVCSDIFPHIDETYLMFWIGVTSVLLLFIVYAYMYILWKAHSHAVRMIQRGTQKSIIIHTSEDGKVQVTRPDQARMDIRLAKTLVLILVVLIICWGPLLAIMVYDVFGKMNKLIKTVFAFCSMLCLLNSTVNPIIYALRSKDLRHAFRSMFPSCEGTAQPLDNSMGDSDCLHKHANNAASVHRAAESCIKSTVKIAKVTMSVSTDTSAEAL
Sequence of 3',5'-cyclic-AMP phosphodiesterase 4D (Q08499 whole entry): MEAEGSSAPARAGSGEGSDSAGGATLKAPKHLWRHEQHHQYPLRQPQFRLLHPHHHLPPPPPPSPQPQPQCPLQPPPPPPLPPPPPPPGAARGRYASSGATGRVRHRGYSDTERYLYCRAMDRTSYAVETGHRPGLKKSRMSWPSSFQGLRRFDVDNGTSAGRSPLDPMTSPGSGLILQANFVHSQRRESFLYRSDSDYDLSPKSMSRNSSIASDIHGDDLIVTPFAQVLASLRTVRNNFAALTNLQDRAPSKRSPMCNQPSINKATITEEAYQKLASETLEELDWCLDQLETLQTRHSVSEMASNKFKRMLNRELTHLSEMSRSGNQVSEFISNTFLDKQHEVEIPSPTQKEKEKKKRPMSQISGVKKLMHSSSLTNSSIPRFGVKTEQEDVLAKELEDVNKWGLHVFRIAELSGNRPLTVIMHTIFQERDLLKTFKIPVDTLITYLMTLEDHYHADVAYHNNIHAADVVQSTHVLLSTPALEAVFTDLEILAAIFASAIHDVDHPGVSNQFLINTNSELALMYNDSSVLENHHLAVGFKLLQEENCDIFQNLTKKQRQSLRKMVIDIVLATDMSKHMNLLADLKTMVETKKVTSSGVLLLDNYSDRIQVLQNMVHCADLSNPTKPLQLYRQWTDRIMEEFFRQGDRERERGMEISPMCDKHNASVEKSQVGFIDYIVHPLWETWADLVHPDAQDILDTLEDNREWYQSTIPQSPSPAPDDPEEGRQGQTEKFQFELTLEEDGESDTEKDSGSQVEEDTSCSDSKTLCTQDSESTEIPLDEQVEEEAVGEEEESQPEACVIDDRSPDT
Sequence of Histamine H2 receptor (P25021 whole entry): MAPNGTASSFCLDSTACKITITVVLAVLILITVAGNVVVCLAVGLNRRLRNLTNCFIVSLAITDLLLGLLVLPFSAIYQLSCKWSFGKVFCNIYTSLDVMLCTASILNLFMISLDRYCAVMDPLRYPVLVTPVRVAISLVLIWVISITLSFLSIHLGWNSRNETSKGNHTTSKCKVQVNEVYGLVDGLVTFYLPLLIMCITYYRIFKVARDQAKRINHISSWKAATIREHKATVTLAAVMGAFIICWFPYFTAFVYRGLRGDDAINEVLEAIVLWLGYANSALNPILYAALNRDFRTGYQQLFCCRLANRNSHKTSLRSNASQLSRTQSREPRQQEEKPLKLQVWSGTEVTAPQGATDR

| Compound | AC50 [1] [µM] | AC50 (Cannabinoid receptor 1 [2]) [µM] | AC50 (Cannabinoid receptor 1 [3]) [µM] | AC50 (Cannabinoid receptor 1 [4]) [µM] | AC50 [5] [µM] | AC50 [6] [µM] | AC50 (Histamine H2 receptor) [µM] | AC50 [7] [µM] | AC50 (Melanocortin receptor 4) [µM] | AC50 [8] [µM] | AC50 (Progesterone receptor [9]) [µM] | AC50 (Progesterone receptor [10]) [µM] | AC50 (Histamine H3 receptor) [µM] | AC50 [11] [µM] |
| --- | --- | --- | --- | --- | --- | --- | --- | --- | --- | --- | --- | --- | --- | --- |
| COc1ccccc1Oc1c(NS(=O)(=O)c2ccc(C(C)(C)C)cc2)nc(-c2ncccn2)nc1OCCO [BOSENTAN] | > 30 | > 30 | > 30 | > 10 | > 30 | > 10 | > 10 | > 30 | > 30 | > 30 | > 30 | > 30 | > 10 | – |
| O=C1CCc2cc(OCCCCc3nnnn3C3CCCCC3)ccc2N1 [CILOSTAZOL] | > 30 | > 30 | > 30 | > 10 | > 30 | > 30 | > 30 | > 30 | > 30 | 23.4 | > 30 | > 30 | > 30 | – |
| [H]/N=C(\N/C(=N/[H])Nc1ccc(Cl)cc1)NC(C)C [PROGUANIL] | – | – | – | – | – | – | – | – | – | – | – | – | – | > 30 |
| COc1ccc(CC2c3cc(OC)c(OC)cc3CC[N+]2(C)CCC(=O)OCCCCCOC(=O)CC[N+]2(C)CCc3cc(OC)c(OC)cc3C2Cc2ccc(OC)c(OC)c2)cc1OC (stereo not drawn) | > 30 | – | – | > 30 | 11.2 | > 30 | > 30 | > 30 | > 30 | > 30 | > 30 | > 30 | > 30 | – |
| N[C@@H](CS)C(=O)O [CYSTEINE] | – | – | – | – | – | – | – | – | – | – | – | – | – | > 30 |
| O=C1C(CC[S+]([O-])c2ccccc2)C(=O)N(c2ccccc2)N1c1ccccc1 (stereo not drawn) [SULFINPYRAZONE] | > 10 | > 30 | > 30 | > 10 | > 10 | > 10 | > 10 | > 30 | > 10 | > 30 | > 10 | > 10 | – | – |
| COc1c2ccoc2cc2oc(=O)ccc12 [BERGAPTEN] | – | – | – | – | – | – | – | – | – | – | – | – | – | > 30 |
| Cc1onc(-c2ccccc2)c1-c1ccc(S(N)(=O)=O)cc1 [VALDECOXIB] | > 30 | > 30 | > 30 | > 10 | > 30 | > 10 | > 10 | > 30 | > 30 | > 10 | > 30 | > 30 | > 30 | – |
| CN1CCCCC1CCN1c2ccccc2Sc2ccc([S+](C)[O-])cc21 (stereo not drawn) [MESORIDAZINE] | – | – | – | – | – | – | – | – | – | – | – | – | – | > 30 |
| Cc1onc(-c2ccccc2)c1C(=O)N[C@@H]1C(=O)N2[C@@H]1SC(C)(C)[C@@H]2C(=O)O [OXACILLIN] | – | – | – | – | – | – | – | – | – | – | – | – | – | > 30 |
| CC(CN1CC(=O)NC(=O)C1)N1CC(=O)NC(=O)C1 (stereo not drawn) [RAZOXANE] | – | – | – | – | – | – | – | – | – | – | – | – | – | > 30 |
| CC(C)OC(=O)CCC/C=C\C[C@@H]1[C@@H](/C=C/C(F)(F)COc2ccccc2)[C@H](O)C[C@@H]1O [TAFLUPROST] | – | – | – | – | – | – | – | – | – | – | – | – | – | > 30 |
| CC(C(=O)O)c1ccc2c(c1)[nH]c1ccc(Cl)cc12 (stereo not drawn) [CARPROFEN] | > 30 | – | – | > 10 | > 30 | > 10 | > 10 | > 30 | > 10 | 5.2 | > 30 | > 30 | > 30 | – |
| C[C@]12C=CC(=O)N[C@@H]1CC[C@@H]1[C@@H]2CC[C@]2(C)[C@@H](C(=O)Nc3cc(C(F)(F)F)ccc3C(F)(F)F)CC[C@@H]12 [DUTASTERIDE] | > 10 | > 30 | > 30 | > 10 | > 10 | > 10 | > 10 | > 30 | > 10 | > 30 | > 10 | > 10 | – | – |
| COc1ccccc1OCCNCC(O)COc1cccc2[nH]c3ccccc3c12 (stereo not drawn) [CARVEDILOL] | > 30 | > 30 | > 30 | > 10 | 14.1 | 5.09 | > 10 | > 10 | 29.9 | > 10 | > 30 | > 30 | > 30 | – |
| C[C@@H](Oc1cc(-c2cnn(C3CCNCC3)c2)cnc1N)c1c(Cl)ccc(F)c1Cl [CRIZOTINIB] | > 30 | > 30 | > 10 | > 10 | 13.9 | – | – | > 30 | 19.8 | 4.8 | > 30 | > 30 | – | – |
| CC(C)N(CCC(C(N)=O)(c1ccccc1)c1ccccn1)C(C)C (stereo not drawn) [DISOPYRAMIDE] | > 30 | > 30 | > 30 | > 10 | > 30 | > 10 | > 10 | > 30 | > 30 | > 10 | > 30 | 27 | > 30 | – |
| N[C@@H](CC(=O)N1CCn2c(nnc2C(F)(F)F)C1)Cc1cc(F)c(F)cc1F [SITAGLIPTIN] | > 30 | > 30 | > 30 | > 10 | > 30 | > 10 | – | > 30 | > 10 | > 30 | > 30 | > 30 | > 30 | – |
| C=CC[C@@H]1/C=C(\C)C[C@H](C)C[C@H](OC)[C@H]2O[C@@](O)(C(=O)C(=O)N3CCCC[C@H]3C(=O)O[C@H](/C(C)=C/[C@@H]3CC[C@@H](O)[C@H](OC)C3)[C@H](C)[C@@H](O)CC1=O)[C@H](C)C[C@@H]2OC [TACROLIMUS ANHYDROUS] | > 30 | > 30 | > 30 | > 10 | > 30 | > 10 | > 10 | > 30 | > 30 | > 30 | > 30 | > 30 | > 30 | – |
